Measured values reported in US20120115782A1, “COMPOSITIONS AND METHODS FOR TREATING OR INHIBITING LIVER INJURY” (Yale University, priority 2009, published 2012).

Legend:
[1] = system: APAP induced hepatotoxicity in wild-type mice; experiment: Acetaminophen (APAP) induced hepatotoxicity in mice: survival, serum ALT, liver histology; type: in vivo, mouse (C57BL/6)
Experimental: Animals. C57BL/6 mice were purchased from commercial sources. NALP3 −/−, IL-18 −/− ASC −/−, IPAF −/− and TLR9 −/− mice were backcrossed nine generations onto the C57BL/6 background. Caspase 1 −/− mice were backcrossed 5-6 generations onto the C57BL/6 background. These mice have been described previously (39, 40). IL-1β was neutralized in by using the anti-IL-1β antibody from clone B122 (a gift of R. Schreiber, Washington University) at a dose of 0.2 mg/mouse iv twice a day for a total of 48 hours after giving APAP. Control mice received Armenian hamster isotype control antibody. For survival experiments animals were euthanized when they became moribund using criteria of lack of response to stimuli or lack of righting reflex. Animal protocols were approved by the Yale University animal care and use committee. [include references for IPAF−/− (M. Lara-Tejero et al. JEM 2006) and IL-18−/−. Need to add TLR9−/− and TLR3−/−] Acetaminophen induced hepatotoxicity. APAP (Sigma, Mo.) solution was made fresh for each experiment in PBS at 20 mg/ml and heated in a water bath to 55° C. to dissolve. APAP was dosed at 500 mg/kg and injected I.P after 15 hrs of starvation. Animals were euthanized by ketamine/xylazine injection at 12 hours for collection of serum, isolation of liver lymphocytes or collection of liver tissue for histology, or they were observed every four hours for 72 hours until they reached criteria for euthanasia (lack of response to stimuli or lack of righting reflex).
Aspirin/clopidogrel/SC-560. Aspirin (Sigma, Mo.) was made fresh for each experiment. For dosing prior to APAP it was dissolved in single deionized water at 60 mg/l and heated to 42° C. with rapid stirring to dissolve, then rapidly placed in an ice water bath to cool. Aspirin in water was given to the mice 60-72 hours prior to APAP injection. Assuming water consumption of 3-5 ml per day this dose would be equivalent to a 300-500 mg dose in an 80 kg adult human. For co-administration of APAP and aspirin, aspirin was gavaged at a dose of 6 mg/kg in a volume of 100 ul of water immediately after ip injection of APAP. Clopidogrel (Gilead Pharmaceuticals, CA.) was dissolved in PBS at 6 mg/ml and administered by gavage of 100 ul, 30 mg/kg, every 24 hours beginning 48 hours prior and ending 24 hours after APAP injection. Cox-1 inhibitor (SC-560). SC-560 (Cayman chemical, MI) was dissolved at 50 mg/ml in DMSO and further dissolved in PBS in order to gavage a dose of 5 mg/kg in 100 ul. It was administered twice per day beginning 60 hours prior to Tylenol and continued for 48 hours after APAP injection as previously established (41).
Uric Acid Peritonitis. Peritonitis was induced with uric acid crystals as previously described by injecting 3 mg of MSU intraperitoneally per mouse (27). Three hours after injection peritoneal lavage was performed on mice euthanized by isoflurane inhalation. Neutrophil infiltration was evaluated by flow cytometry. The percent of Gr-1 (BD Pharmingen, CA) positive cells was multiplied by the total cell counts. Liver sinusoidal endothelial cell (LSEC) isolation. After in-situ pronase digestion the non-parenchymal cell suspension is centrifuged for 5 min at 100 g to remove most of the parenchymal cells. This process is repeated until no pellet is observed. The supernatant enriched in LSEC is centrifuged for 10 min at 350 g. The pellet is resuspended in PBS and centrifuged for 10 min at 350 g. The cells are resuspended in. PBS and layered (3.3 ml) on the top of two-step percoll gradient (put the 5 ml of 50% percoll at the bottom and put the 6.6 ml of 25% percoll at the top). The gradients are centrifuged at 900 g for 20 min and the intermediate layer included LSEC is collected and cultured in the media (EGM™-2MV—Microvascular Endothelial Cell Medium-2, CAMBREX, Charles City, Iowa). ODN2088 and IRS 954 injection.

pro-IL-1β transcript = experiment: Q-PCR of whole liver 12 hours after APAP: pro-IL-1β; type: in vivo, mouse; settings: aspirin pre-treatment in drinking water
Experimental: (§1) Uric Acid Peritonitis. Peritonitis was induced with uric acid crystals as previously described by injecting 3 mg of MSU intraperitoneally per mouse (27). Three hours after injection peritoneal lavage was performed on mice euthanized by isoflurane inhalation. Neutrophil infiltration was evaluated by flow cytometry. The percent of Gr-1 (BD Pharmingen, CA) positive cells was multiplied by the total cell counts. Liver sinusoidal endothelial cell (LSEC) isolation. After in-situ pronase digestion the non-parenchymal cell suspension is centrifuged for 5 min at 100 g to remove most of the parenchymal cells. This process is repeated until no pellet is observed. […] TLR9 antagonist (ODN2088, 50 microg×2) or PBS, were injected ip into wild-type mice immediately after and at 6 hours after APAP injection and total mouse liver was obtained 12 hours after APAP injection for quantitative Q-PCR for IL-1β. […] Quantitative Real-time PCR. […] Expression of glyceraldehyde 3-phosphate dehydrogenase was used to standardize the samples, and the results were expressed as a ratio compared with untreated HSCs. Quantitative Real-time PCR for mRNA expression of IL-18, IL-1β, TNF-α and IFN-γ. […] Quantitative real-time PCR (Q-PCR) was performed for IL-18 and IL-1β using commercial primer-probe sets (Applied Biosystems, CA) and the Applied Biosystem 7500 real time PCR system. […]

pro-IL-18 transcript = experiment: Q-PCR of whole liver 12 hours after APAP: pro-IL-18; type: in vivo, mouse; settings: aspirin pre-treatment in drinking water
Experimental: as §1

TNF-α = experiment: Q-PCR of whole liver after APAP: TNF-α; type: in vivo, mouse; settings: aspirin treatment
Experimental: as §1

IFN-γ = experiment: Q-PCR of whole liver after APAP: IFN-γ; type: in vivo, mouse; settings: aspirin treatment
Experimental: as §1

IL-1β = experiment: ELISA for serum IL-1β after APAP; type: in vivo, mouse; settings: ASA in drinking water
NALP3 inflammasome = experiment: Uric acid (MSU crystal) peritonitis, model of NALP3 inflammasome activation; type: in vivo; settings: low dose aspirin (60 mg/l) in drinking water three days prior; lavage 3 hours after MSU 3 mg/mouse ip
Experimental: as §1

[2] = system: THP1 cells (pro-IL-1β transcript); experiment: THP1 cells stimulated with LPS, real-time PCR for pro-IL-1β; type: cell-based, human; settings: overnight with aspirin (1.5 mM, 0.15 mM), then LPS 10 μg/ml for 8 hours
Experimental: as §1

[3] = system: APAP toxicity in mice and rats; settings: aspirin 200-600 mg/kg; cited from earlier work

COc1ccc(-n2nc(C(F)(F)F)cc2-c2ccc(Cl)cc2)cc1 [SC-560]
protection against APAP toxicity (survival) ([1]; SC-560 gavage 5 mg/kg twice daily, from 60 hours prior to 48 hours after APAP): did not protect

CC(=O)Oc1ccccc1C(=O)O [aspirin, acetylsalicylic acid]
survival after APAP ([1]; aspirin 60 mg/l in drinking water for 3 days before APAP 500 mg/kg ip, 72 hours): markedly improved survival | survival, aspirin given concordantly with APAP ([1]; aspirin gavaged 6 mg/kg immediately after ip APAP): 43%+/−11% | liver histology (H&E) 12 hours after APAP ([1]; aspirin in drinking water three days prior to APAP): significant reduction in APAP induced liver injury and hemorrhage | serum ALT 12 hrs after APAP ([1]; pre-treatment with aspirin in drinking water): significantly lower serum ALT | increase in pro-IL-1β message by APAP, whole liver (pro-IL-1β transcript): reduced to normal levels | increase in pro-IL-18 message by APAP, whole liver (pro-IL-18 transcript): reduced to normal levels | expression of TNF-α, whole liver after APAP (TNF-α): reduced | expression of IFN-γ, whole liver after APAP (IFN-γ): reduced | serum IL-1β levels induced by APAP (IL-1β): significant reduction | neutrophil exudates (Gr-1 positive) in MSU peritonitis (NALP3 inflammasome): eightfold reduction | up-regulation of pro-IL-1β transcript by LPS in THP1 cells [2]: reduced | liver injury from APAP [3]: reduce liver injury | survival from APAP [3]: not improve survival

COC(=O)[C@H](c1ccccc1Cl)N1CCc2sccc2C1 [clopidogrel]
protection against APAP toxicity (survival) ([1]; clopidogrel gavage 30 mg/kg every 24 hrs, from 48 hours prior to 24 hours after APAP): did not protect
